Laboratory results published in US11759455B2, “Substituted 1H-imidazo[4,5-b]pyridin-2(3H)-ones and their use as GLUN2B receptor modulators” (JANSSEN PHARMACEUTICA NV, priority 2016, dated 2023).
Like-named read-outs stand apart in the source and are kept apart here.

Columns and labels:
[1] = target: T1, human GluN1/GluN2B NMDA receptors (Homo sapiens, UniProt Q05586+Q13224); experiment: Cell-based calcium flux (FLIPR) assay on cloned human NR1/NR2B ion channels expressed in mammalian cells (standard and HTS buffer variants);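 also: stable Tet-On inducible cell line, Ca2+ influx triggered by glutamate at about EC40 plus 10 µM glycine, fluorescent dye read-out over 5 min, normalized to control wells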
T1 construct: expressed in transfected cells
T1 sequence (Q13224 27-1484, other chains not shown): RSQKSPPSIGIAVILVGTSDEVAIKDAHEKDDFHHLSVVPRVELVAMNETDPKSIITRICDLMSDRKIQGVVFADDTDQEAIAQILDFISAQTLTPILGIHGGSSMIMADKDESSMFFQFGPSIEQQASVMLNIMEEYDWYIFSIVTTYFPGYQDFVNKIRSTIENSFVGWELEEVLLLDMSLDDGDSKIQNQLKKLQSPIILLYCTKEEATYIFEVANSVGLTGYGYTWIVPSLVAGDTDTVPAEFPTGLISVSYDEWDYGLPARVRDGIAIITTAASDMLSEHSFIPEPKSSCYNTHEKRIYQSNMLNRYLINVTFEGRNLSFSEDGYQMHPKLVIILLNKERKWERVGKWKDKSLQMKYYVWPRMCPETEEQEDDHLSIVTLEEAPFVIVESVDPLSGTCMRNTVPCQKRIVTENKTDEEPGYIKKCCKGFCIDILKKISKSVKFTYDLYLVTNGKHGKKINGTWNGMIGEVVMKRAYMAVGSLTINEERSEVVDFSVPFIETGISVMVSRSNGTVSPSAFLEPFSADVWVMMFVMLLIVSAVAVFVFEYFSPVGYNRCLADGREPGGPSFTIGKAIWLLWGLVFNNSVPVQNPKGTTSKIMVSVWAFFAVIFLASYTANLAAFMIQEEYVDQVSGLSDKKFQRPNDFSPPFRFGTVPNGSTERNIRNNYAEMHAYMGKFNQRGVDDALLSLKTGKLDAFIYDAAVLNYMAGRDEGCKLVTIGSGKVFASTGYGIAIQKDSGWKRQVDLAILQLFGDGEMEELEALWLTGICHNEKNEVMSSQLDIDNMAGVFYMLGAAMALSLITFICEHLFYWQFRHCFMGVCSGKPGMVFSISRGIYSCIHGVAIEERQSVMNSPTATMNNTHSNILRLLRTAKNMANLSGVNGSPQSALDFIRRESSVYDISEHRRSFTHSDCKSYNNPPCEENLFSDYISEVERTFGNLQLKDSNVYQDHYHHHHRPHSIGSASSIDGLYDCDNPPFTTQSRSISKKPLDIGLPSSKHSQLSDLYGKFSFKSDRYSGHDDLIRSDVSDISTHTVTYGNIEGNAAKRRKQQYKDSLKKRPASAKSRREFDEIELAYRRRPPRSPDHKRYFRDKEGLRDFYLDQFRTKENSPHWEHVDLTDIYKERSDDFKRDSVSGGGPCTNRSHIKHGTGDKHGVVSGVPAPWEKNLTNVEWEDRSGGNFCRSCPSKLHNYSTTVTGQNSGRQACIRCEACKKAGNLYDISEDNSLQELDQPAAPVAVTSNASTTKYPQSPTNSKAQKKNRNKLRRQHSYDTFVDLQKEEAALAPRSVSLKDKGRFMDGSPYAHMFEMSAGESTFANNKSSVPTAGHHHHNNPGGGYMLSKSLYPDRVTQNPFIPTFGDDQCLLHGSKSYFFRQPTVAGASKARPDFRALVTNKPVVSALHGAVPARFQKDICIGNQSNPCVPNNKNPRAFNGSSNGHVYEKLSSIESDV

[2] = target: T2, human GluN1/GluN2B NMDA receptors (Homo sapiens, UniProt Q13224); experiment: as above
T2 construct: expressed in transfected cells
T2 sequence (Q13224 27-1484, other chains not shown): as above

[3] = standard assay buffer (0.5 mM MgCl2 dye loading; 137 mM NaCl, 4 mM KCl assay buffer), human GluN1/GluN2B cells, read-out: NR2B IC50 (μM) standard assay
[4] = standard assay buffer (0.5 mM MgCl2 in dye loading buffer; 137 mM NaCl, 4 mM KCl in assay buffer), human GluN1/GluN2B, read-out: NR2B IC50 (μM) standard assay
[5] = HTS assay buffer (1.5 mM MgCl2 in dye loading buffer; 150 mM NaCl, 3 mM KCl in assay buffer), human GluN1/GluN2B, read-out: NR2B IC50 (μM) HTS assay

| SMILES | IC50 [2, 4] [µM] | IC50 [2, 3] [µM] | also measured |
| --- | --- | --- | --- |
| O=c1[nH]c2ncc(-c3ccc(F)c(C(F)(F)F)c3)cc2n1CC1CCN1 (racemic) [Example 267, (R/S)-1-(Azetidin-2-ylmethyl)-6-[4-fluoro-3-(trifluoromethyl)phenyl]-3H-imidazo[4,5-b]pyridin-2-one] |  |  | IC50 [1, 3]: 0.442 µM |
| COc1ccc(-c2cnc3[nH]c(=O)n(CC(=O)C(C)(C)C)c3c2)cc1 [Example 601, 1-(3,3-Dimethyl-2-oxo-butyl)-6-(4-methoxyphenyl)-3H-imidazo[4,5-b]pyridin-2-one] |  |  | IC50 [1, 4]: 1.63 µM |
| CCC(O)Cn1c(=O)[nH]c2ncc(-c3ccc(F)cc3C)cc21 (single isomer, unassigned) [Example 44, (S*)-6-(4-Fluoro-2-methyl-phenyl)-1-(2-hydroxybutyl)-3H-imidazo[4,5-b]pyridin-2-one] |  |  | IC50 ([1]; HTS assay buffer (1.5 mM MgCl2 dye loading; 150 mM NaCl, 3 mM KCl assay buffer), human GluN1/GluN2B cells, read-out: NR2B IC50 (μM) HTS assay): 0.325 µM |
| CC(C(=O)NC1CC1)n1c(=O)[nH]c2ncc(-c3cccc(C(F)(F)F)c3)cc21 (racemic) [Example 202, (R/S)—N-Cyclopropyl-2-[2-oxo-6-[3-(trifluoromethyl)phenyl]-3H-imidazo[4,5-b]pyridin-1-yl]propanamide] |  |  | IC50 [1, 3]: 7.32 µM |
| Cc1cc(-c2cnc3c(c2)n(CC2CCO2)c(=O)n3C)ccc1F (racemic) [Example 395, (R/S)-6-(4-Fluoro-3-methyl-phenyl)-3-methyl-1-(oxetan-2-ylmethyl)imidazo[4,5-b]pyridin-2-one] |  |  | IC50 [1, 4]: 1.2 µM |
| O=c1[nH]c2ncc(-c3cccc(C(F)(F)F)c3)cc2n1CC1CCO1 (racemic) [Example 216, (R/S)-1-(Oxetan-2-ylmethyl)-6-[3-(trifluoromethyl)phenyl]-3H-imidazo[4,5-b]pyridin-2-one] |  |  | IC50 [1, 3]: 0.034 µM |
| Cc1cc(-c2cnc3c(c2)n(CC(=O)N2CCC2)c(=O)n3C)ccc1F [Example 410, 1-[2-(Azetidin-1-yl)-2-oxo-ethyl]-6-(4-fluoro-3-methyl-phenyl)-3-methyl-imidazo[4,5-b]pyridin-2-one] |  |  | IC50 [1, 4]: 0.013 µM |
| CC(C)C(O)Cn1c(=O)[nH]c2ncc(-c3cccc(C(F)(F)F)c3)cc21 (racemic) [Example 338, (R/S)-1-(2-Hydroxy-3-methyl-butyl)-6-[3-(trifluoromethyl)phenyl]-3H-imidazo[4,5-b]pyridin-2-one] |  |  | IC50 [1, 4]: 0.687 µM |
| COc1ccc(-c2cnc3[nH]c(=O)n(CC(=O)C(C)(C)C)c3c2)cc1F [Example 609, 1-(3,3-Dimethyl-2-oxo-butyl)-6-(3-fluoro-4-methoxy-phenyl)-3H-imidazo[4,5-b]pyridin-2-one] |  |  | IC50 [1, 4]: 0.263 µM |
| COc1cc(F)ccc1-c1cnc2[nH]c(=O)n(CC(=O)c3cccs3)c2c1 [Example 462, 6-(4-Fluoro-2-methoxy-phenyl)-1-[2-oxo-2-(2-thienyl)ethyl]-3H-imidazo[4,5-b]pyridin-2-one] | 0.255 |  |  |
| CN(C)C(=O)Cn1c(=O)n(C)c2ncc(-c3ccc(C(F)(F)F)s3)cc21 [Example 28, N,N-Dimethyl-2-[3-methyl-2-oxo-6-[5-(trifluoromethyl)-2-thienyl]imidazo[4,5-b]pyridin-1-yl]acetamide] |  | 0.034 |  |
| CN(C)C(=O)Cn1c(=O)n(C)c2ncc(-c3ccc(F)c(OC(F)F)c3)cc21 [Example 587, 2-[6-[3-(Difluoromethoxy)-4-fluoro-phenyl]-3-methyl-2-oxo-imidazo[4,5-b]pyridin-1-yl]-N,N-dimethyl-acetamide] | 0.035 |  |  |
| CC1CCN(CCn2c(=O)[nH]c3ncc(-c4cccc(C(F)(F)F)c4)cc32)C1 (stereo not drawn) [Example 164, 1-[2-(3-Methylpyrrolidin-1-yl)ethyl]-6-[3-(trifluoromethyl)phenyl]-3H-imidazo[4,5-b]pyridin-2-one] |  | 1.22 |  |
| O=c1[nH]c2ncc(-c3cccc(C(F)(F)F)c3)cc2n1Cc1ccc(F)nc1 [Example 238, 1-[(6-Fluoro-3-pyridyl)methyl]-6-[3-(trifluoromethyl)phenyl]-3H-imidazo[4,5-1D]pyridin-2-one] |  | 0.088 |  |
| COc1cc(F)ccc1-c1cnc2[nH]c(=O)n(Cc3cccc(C#N)c3)c2c1 [Example 478, 3-[[6-(4-Fluoro-2-methoxy-phenyl)-2-oxo-3H-imidazo[4,5-b]pyridin-1-yl]methyl]benzonitrile] |  |  | IC50 [2, 5]: 3.04 µM |
| Cn1c(=O)n(CC(=O)N2CC(F)(F)C2)c2cc(-c3ccc(F)c(F)c3)cnc21 [Example 416, 1-[2-(3,3-Difluoroazetidin-1-yl)-2-oxo-ethyl]-6-(3,4-difluorophenyl)-3-methyl-imidazo[4,5-b]pyridin-2-one] | 0.01 |  |  |
| NC(=O)Cn1c(=O)[nH]c2ncc(-c3ccc(F)c(Cl)c3)cc21 [Example 434, 2-[6-(3-Chloro-4-fluoro-phenyl)-2-oxo-3H-imidazo[4,5-b]pyridin-1-yl]acetamide] | 0.583 |  |  |
| O=C(Cn1c(=O)[nH]c2ncc(-c3cccc(C(F)(F)F)c3)cc21)C1CCC1 [Example 262, 1-(2-cyclobutyl-2-oxo-ethyl)-6-[3-(trifluoromethyl)phenyl]-3H-imidazo[4,5-b]pyridin-2-one] |  | 0.308 |  |
| O=C(O)Cn1c(=O)[nH]c2ncc(-c3cccc(C(F)(F)F)c3)cc21 [Example 135, 2-[2-Oxo-6-[3-(trifluoromethyl)phenyl]-3H-imidazo[4,5-1D]pyridin-1-yl]acetic Acid] |  | 6 |  |
| Cn1c(=O)n(CC(=O)N2CCC2)c2cc(-c3cc(C(F)F)cs3)cnc21 [Example 117, 1-[2-(Azetidin-1-yl)-2-oxo-ethyl]-6-[4-(difluoromethyl)-2-thienyl]-3-methyl-imidazo[4,5-b]pyridin-2-one] |  | 0.038 |  |
| CCOc1ccc(F)cc1-c1cnc2[nH]c(=O)n(Cc3cccc(F)c3)c2c1 [Example 494, 6-(2-Ethoxy-5-fluoro-phenyl)-1-[(3-fluorophenyl)methyl]-3H-imidazo[4,5-b]pyridin-2-one] |  |  | IC50 [2, 5]: 5.64 µM |

More lines, main results first:

| IC50 [2, 4] [µM] | IC50 [2, 3] [µM] | SMILES | also measured |
| --- | --- | --- | --- |
|  | 2.66 | Cn1c(=O)n(CC(=O)NC2(C)COC2)c2cc(-c3cccc(C(F)(F)F)c3)cnc21 [Example 199, N-(3-Methyloxetan-3-yl)-2-[3-methyl-2-oxo-6-[3-(trifluoromethyl)phenyl]imidazo[4,5-b]pyridin-1-yl]acetamide] |  |
| 0.621 |  | Cn1c(=O)n(Cc2cncc(F)c2)c2cc(-c3ccc(F)c(F)c3F)cnc21 [Example 347, 1-[(5-Fluoro-3-pyridyl)methyl]-3-methyl-6-(2,3,4-trifluorophenyl)imidazo[4,5-b]pyridin-2-one] |  |
| 0.168 |  | Cn1c(=O)n(Cc2cccnc2)c2cc(-c3ccc(C(F)(F)F)s3)cnc21 [Example 364, 3-Methyl-1-(3-pyridylmethyl)-6-[5-(trifluoromethyl)-2-thienyl]imidazo[4,5-b]pyridin-2-one] |  |
|  | 3.03 | Cn1c(=O)n(Cc2cnccn2)c2cc(-c3cccc(F)c3)cnc21 [Example 55, 6-(3-Fluorophenyl)-3-methyl-1-(pyrazin-2-ylmethyl)imidazo[4,5-b]pyridin-2-one] |  |
| 0.028 |  | Cn1c(=O)n(CC(=O)N2CC(F)(F)C2)c2cc(-c3ccc(C(F)(F)F)s3)cnc21 [Example 430, 1-[2-(3,3-Difluoroazetidin-1-yl)-2-oxo-ethyl]-3-methyl-6-[5-(trifluoromethyl)-2-thienyl]imidazo[4,5-b]pyridin-2-one] |  |
| 0.349 |  | Cn1cc(Cn2c(=O)n(C)c3ncc(-c4ccc(C(F)(F)F)s4)cc32)nn1 [Example 566, 3-Methyl-1-[(1-methyltriazol-4-yl)methyl]-6-[5-(trifluoromethyl)-2-thienyl]imidazo[4,5-b]pyridin-2-one] |  |
|  | 0.61 | Cn1c(=O)n(Cc2cncnc2)c2cc(-c3cccc(F)c3)cnc21 [Example 54, 6-(3-Fluorophenyl)-3-methyl-1-(pyrimidin-5-ylmethyl)imidazo[4,5-b]pyridin-2-one] |  |
| 0.032 |  | Cc1cccc(-c2cnc3c(c2)n(CC(=O)N2CC(F)(F)C2)c(=O)n3C)c1 [Example 581, 1-[2-(3,3-Difluoroazetidin-1-yl)-2-oxo-ethyl]-3-methyl-6-(m-tolyl)imidazo[4,5-b]pyridin-2-one] |  |
| 1.11 |  | Cn1c(=O)n(Cc2cccnc2)c2cc(-c3cc(C(F)F)ccc3F)cnc21 [Example 386, 6-(5-(Difluoromethyl)-2-fluorophenyl)-3-methyl-1-(pyridin-3-ylmethyl)-1,3-dihydro-2H-imidazo[4,5-b]pyridin-2-one] |  |
|  | 1.4 | Cn1c(=O)n(Cc2ccccn2)c2cc(-c3cccc(F)c3)cnc21 [Example 53, 6-(3-Fluorophenyl)-3-methyl-1-(2-pyridylmethyl)imidazo[4,5-b]pyridin-2-one] |  |
|  | 0.009 | Cc1c(F)ccc(-c2cnc3c(c2)n(Cc2cccnn2)c(=O)n3C)c1F [Example 67, 6-(2,4-Difluoro-3-methyl-phenyl)-3-methyl-1-(pyridazin-3-ylmethyl)imidazo[4,5-b]pyridin-2-one] |  |
|  | > 10 | O=C(Cn1c(=O)[nH]c2ncc(-c3cccc(C(F)(F)F)c3)cc21)Nc1ccccn1 [Example 208, 2-[2-Oxo-6-[3-(trifluoromethyl)phenyl]-3H-imidazo[4,5-b]pyridin-1-yl]-N-(2-pyridyl)acetamide] |  |
|  | 0.009 | Cc1cc(-c2cnc3c(c2)n(Cc2cccnn2)c(=O)n3C)ccc1F [Example 50, 6-(4-Fluoro-3-methyl-phenyl)-3-methyl-1-(pyridazin-3-ylmethyl)imidazo[4,5-b]pyridin-2-one] |  |
| 0.251 |  | Cn1c(=O)n(Cc2cncc(F)c2)c2cc(-c3ccc(Cl)c(Cl)c3)cnc21 [Example 351, 6-(3,4-Dichlorophenyl)-1-[(5-fluoro-3-pyridyl)methyl]-3-methyl-imidazo[4,5-b]pyridin-2-one] |  |
| 0.019 |  | CN(C)C(=O)Cn1c(=O)n(C)c2ncc(-c3cccc(C(F)F)c3)cc21 [Example 426, 2-[6-[3-(Difluoromethyl)phenyl]-3-methyl-2-oxo-imidazo[4,5-b]pyridin-1-yl]-N,N-dimethyl-acetamide] |  |
